Numbers after ± are expanded uncertainties.
Assay: activity coefficient (dimensionless); of the first substance listed, at infinite dilution; xn = mol fraction of the nth substance listed
Conditions: 308.15 K; Liquid; x1 = 0

Row | activity coefficient | Structure (SMILES)
1 | 0.46 ± 0.05 | C#CCCCCC [1-heptyne] + CCCCCCCCCCCCCC[P+](CCCCCC)(CCCCCC)CCCCCC.FC(F)(F)C(F)(F)[P-](F)(F)(F)(C(F)(F)C(F)(F)F)C(F)(F)C(F)(F)F
2 | 0.49 ± 0.06 | C1CCCCC1 [cyclohexane] + CCCCCCCCCCCCCC[P+](CCCCCC)(CCCCCC)CCCCCC.FC(F)(F)C(F)(F)[P-](F)(F)(F)(C(F)(F)C(F)(F)F)C(F)(F)C(F)(F)F
3 | 0.2 ± 0.06 | c1ccccc1 [benzene] + CCCCCCCCCCCCCC[P+](CCCCCC)(CCCCCC)CCCCCC.FC(F)(F)C(F)(F)[P-](F)(F)(F)(C(F)(F)C(F)(F)F)C(F)(F)C(F)(F)F
4 | 1.23 ± 0.09 | CO [methanol] + CCCCCCCCCCCCCC[P+](CCCCCC)(CCCCCC)CCCCCC.FC(F)(F)C(F)(F)[P-](F)(F)(F)(C(F)(F)C(F)(F)F)C(F)(F)C(F)(F)F
5 | 0.61 ± 0.06 | CCCCC [pentane] + CCCCCCCCCCCCCC[P+](CCCCCC)(CCCCCC)CCCCCC.FC(F)(F)C(F)(F)[P-](F)(F)(F)(C(F)(F)C(F)(F)F)C(F)(F)C(F)(F)F
6 | 0.84 ± 0.06 | CCCCCCCC [octane] + CCCCCCCCCCCCCC[P+](CCCCCC)(CCCCCC)CCCCCC.FC(F)(F)C(F)(F)[P-](F)(F)(F)(C(F)(F)C(F)(F)F)C(F)(F)C(F)(F)F
7 | 0.67 ± 0.06 | C=CCCCCCC [oct-1-ene] + CCCCCCCCCCCCCC[P+](CCCCCC)(CCCCCC)CCCCCC.FC(F)(F)C(F)(F)[P-](F)(F)(F)(C(F)(F)C(F)(F)F)C(F)(F)C(F)(F)F
8 | 1.16 ± 0.09 | CCCO [propan-1-ol] + CCCCCCCCCCCCCC[P+](CCCCCC)(CCCCCC)CCCCCC.FC(F)(F)C(F)(F)[P-](F)(F)(F)(C(F)(F)C(F)(F)F)C(F)(F)C(F)(F)F
9 | 0.59 ± 0.06 | C=CCCCCC [1-heptene] + CCCCCCCCCCCCCC[P+](CCCCCC)(CCCCCC)CCCCCC.FC(F)(F)C(F)(F)[P-](F)(F)(F)(C(F)(F)C(F)(F)F)C(F)(F)C(F)(F)F
10 | 0.57 ± 0.06 | C#CCCCCCC [1-octyne] + CCCCCCCCCCCCCC[P+](CCCCCC)(CCCCCC)CCCCCC.FC(F)(F)C(F)(F)[P-](F)(F)(F)(C(F)(F)C(F)(F)F)C(F)(F)C(F)(F)F
11 | 0.54 ± 0.06 | C1CCCCCC1 [cycloheptane] + CCCCCCCCCCCCCC[P+](CCCCCC)(CCCCCC)CCCCCC.FC(F)(F)C(F)(F)[P-](F)(F)(F)(C(F)(F)C(F)(F)F)C(F)(F)C(F)(F)F
12 | 1.2 ± 0.09 | CCO [ethanol] + CCCCCCCCCCCCCC[P+](CCCCCC)(CCCCCC)CCCCCC.FC(F)(F)C(F)(F)[P-](F)(F)(F)(C(F)(F)C(F)(F)F)C(F)(F)C(F)(F)F
13 | 0.66 ± 0.06 | CCCCCC [hexane] + CCCCCCCCCCCCCC[P+](CCCCCC)(CCCCCC)CCCCCC.FC(F)(F)C(F)(F)[P-](F)(F)(F)(C(F)(F)C(F)(F)F)C(F)(F)C(F)(F)F
14 | 0.42 ± 0.05 | C1CCCC1 [cyclopentane] + CCCCCCCCCCCCCC[P+](CCCCCC)(CCCCCC)CCCCCC.FC(F)(F)C(F)(F)[P-](F)(F)(F)(C(F)(F)C(F)(F)F)C(F)(F)C(F)(F)F
15 | 0.53 ± 0.06 | C=CCCCC [hex-1-ene] + CCCCCCCCCCCCCC[P+](CCCCCC)(CCCCCC)CCCCCC.FC(F)(F)C(F)(F)[P-](F)(F)(F)(C(F)(F)C(F)(F)F)C(F)(F)C(F)(F)F
16 | 0.74 ± 0.06 | CCCCCCC [heptane] + CCCCCCCCCCCCCC[P+](CCCCCC)(CCCCCC)CCCCCC.FC(F)(F)C(F)(F)[P-](F)(F)(F)(C(F)(F)C(F)(F)F)C(F)(F)C(F)(F)F
17 | 0.42 ± 0.05 | C#CCCCC [1-hexyne] + CCCCCCCCCCCCCC[P+](CCCCCC)(CCCCCC)CCCCCC.FC(F)(F)C(F)(F)[P-](F)(F)(F)(C(F)(F)C(F)(F)F)C(F)(F)C(F)(F)F

Same assay, conditions: 318.15 K; Liquid; x1 = 0

Row | activity coefficient | Structure (SMILES)
18 | 0.46 ± 0.05 | C#CCCCCC [1-heptyne] + CCCCCCCCCCCCCC[P+](CCCCCC)(CCCCCC)CCCCCC.FC(F)(F)C(F)(F)[P-](F)(F)(F)(C(F)(F)C(F)(F)F)C(F)(F)C(F)(F)F
19 | 0.48 ± 0.05 | C1CCCCC1 [cyclohexane] + CCCCCCCCCCCCCC[P+](CCCCCC)(CCCCCC)CCCCCC.FC(F)(F)C(F)(F)[P-](F)(F)(F)(C(F)(F)C(F)(F)F)C(F)(F)C(F)(F)F
20 | 0.19 ± 0.06 | c1ccccc1 [benzene] + CCCCCCCCCCCCCC[P+](CCCCCC)(CCCCCC)CCCCCC.FC(F)(F)C(F)(F)[P-](F)(F)(F)(C(F)(F)C(F)(F)F)C(F)(F)C(F)(F)F
21 | 1.14 ± 0.08 | CO [methanol] + CCCCCCCCCCCCCC[P+](CCCCCC)(CCCCCC)CCCCCC.FC(F)(F)C(F)(F)[P-](F)(F)(F)(C(F)(F)C(F)(F)F)C(F)(F)C(F)(F)F
22 | 0.6 ± 0.06 | CCCCC [pentane] + CCCCCCCCCCCCCC[P+](CCCCCC)(CCCCCC)CCCCCC.FC(F)(F)C(F)(F)[P-](F)(F)(F)(C(F)(F)C(F)(F)F)C(F)(F)C(F)(F)F
23 | 0.8 ± 0.06 | CCCCCCCC [octane] + CCCCCCCCCCCCCC[P+](CCCCCC)(CCCCCC)CCCCCC.FC(F)(F)C(F)(F)[P-](F)(F)(F)(C(F)(F)C(F)(F)F)C(F)(F)C(F)(F)F
24 | 0.65 ± 0.06 | C=CCCCCCC [oct-1-ene] + CCCCCCCCCCCCCC[P+](CCCCCC)(CCCCCC)CCCCCC.FC(F)(F)C(F)(F)[P-](F)(F)(F)(C(F)(F)C(F)(F)F)C(F)(F)C(F)(F)F
25 | 1 ± 0.07 | CCCO [propan-1-ol] + CCCCCCCCCCCCCC[P+](CCCCCC)(CCCCCC)CCCCCC.FC(F)(F)C(F)(F)[P-](F)(F)(F)(C(F)(F)C(F)(F)F)C(F)(F)C(F)(F)F
26 | 0.58 ± 0.06 | C=CCCCCC [1-heptene] + CCCCCCCCCCCCCC[P+](CCCCCC)(CCCCCC)CCCCCC.FC(F)(F)C(F)(F)[P-](F)(F)(F)(C(F)(F)C(F)(F)F)C(F)(F)C(F)(F)F
27 | 0.52 ± 0.06 | C#CCCCCCC [1-octyne] + CCCCCCCCCCCCCC[P+](CCCCCC)(CCCCCC)CCCCCC.FC(F)(F)C(F)(F)[P-](F)(F)(F)(C(F)(F)C(F)(F)F)C(F)(F)C(F)(F)F
28 | 0.52 ± 0.06 | C1CCCCCC1 [cycloheptane] + CCCCCCCCCCCCCC[P+](CCCCCC)(CCCCCC)CCCCCC.FC(F)(F)C(F)(F)[P-](F)(F)(F)(C(F)(F)C(F)(F)F)C(F)(F)C(F)(F)F
29 | 1.07 ± 0.08 | CCO [ethanol] + CCCCCCCCCCCCCC[P+](CCCCCC)(CCCCCC)CCCCCC.FC(F)(F)C(F)(F)[P-](F)(F)(F)(C(F)(F)C(F)(F)F)C(F)(F)C(F)(F)F
30 | 0.64 ± 0.06 | CCCCCC [hexane] + CCCCCCCCCCCCCC[P+](CCCCCC)(CCCCCC)CCCCCC.FC(F)(F)C(F)(F)[P-](F)(F)(F)(C(F)(F)C(F)(F)F)C(F)(F)C(F)(F)F
31 | 0.42 ± 0.05 | C1CCCC1 [cyclopentane] + CCCCCCCCCCCCCC[P+](CCCCCC)(CCCCCC)CCCCCC.FC(F)(F)C(F)(F)[P-](F)(F)(F)(C(F)(F)C(F)(F)F)C(F)(F)C(F)(F)F
32 | 0.53 ± 0.06 | C=CCCCC [hex-1-ene] + CCCCCCCCCCCCCC[P+](CCCCCC)(CCCCCC)CCCCCC.FC(F)(F)C(F)(F)[P-](F)(F)(F)(C(F)(F)C(F)(F)F)C(F)(F)C(F)(F)F
33 | 0.72 ± 0.06 | CCCCCCC [heptane] + CCCCCCCCCCCCCC[P+](CCCCCC)(CCCCCC)CCCCCC.FC(F)(F)C(F)(F)[P-](F)(F)(F)(C(F)(F)C(F)(F)F)C(F)(F)C(F)(F)F
34 | 0.42 ± 0.05 | C#CCCCC [1-hexyne] + CCCCCCCCCCCCCC[P+](CCCCCC)(CCCCCC)CCCCCC.FC(F)(F)C(F)(F)[P-](F)(F)(F)(C(F)(F)C(F)(F)F)C(F)(F)C(F)(F)F

Same assay, conditions: 328.15 K; Liquid; x1 = 0

Row | activity coefficient | Structure (SMILES)
35 | 0.45 ± 0.05 | C#CCCCCC [1-heptyne] + CCCCCCCCCCCCCC[P+](CCCCCC)(CCCCCC)CCCCCC.FC(F)(F)C(F)(F)[P-](F)(F)(F)(C(F)(F)C(F)(F)F)C(F)(F)C(F)(F)F
36 | 0.44 ± 0.05 | C1CCCCC1 [cyclohexane] + CCCCCCCCCCCCCC[P+](CCCCCC)(CCCCCC)CCCCCC.FC(F)(F)C(F)(F)[P-](F)(F)(F)(C(F)(F)C(F)(F)F)C(F)(F)C(F)(F)F
37 | 0.19 ± 0.06 | c1ccccc1 [benzene] + CCCCCCCCCCCCCC[P+](CCCCCC)(CCCCCC)CCCCCC.FC(F)(F)C(F)(F)[P-](F)(F)(F)(C(F)(F)C(F)(F)F)C(F)(F)C(F)(F)F
38 | 1.01 ± 0.07 | CO [methanol] + CCCCCCCCCCCCCC[P+](CCCCCC)(CCCCCC)CCCCCC.FC(F)(F)C(F)(F)[P-](F)(F)(F)(C(F)(F)C(F)(F)F)C(F)(F)C(F)(F)F
39 | 0.59 ± 0.06 | CCCCC [pentane] + CCCCCCCCCCCCCC[P+](CCCCCC)(CCCCCC)CCCCCC.FC(F)(F)C(F)(F)[P-](F)(F)(F)(C(F)(F)C(F)(F)F)C(F)(F)C(F)(F)F
40 | 0.77 ± 0.06 | CCCCCCCC [octane] + CCCCCCCCCCCCCC[P+](CCCCCC)(CCCCCC)CCCCCC.FC(F)(F)C(F)(F)[P-](F)(F)(F)(C(F)(F)C(F)(F)F)C(F)(F)C(F)(F)F
41 | 0.64 ± 0.06 | C=CCCCCCC [oct-1-ene] + CCCCCCCCCCCCCC[P+](CCCCCC)(CCCCCC)CCCCCC.FC(F)(F)C(F)(F)[P-](F)(F)(F)(C(F)(F)C(F)(F)F)C(F)(F)C(F)(F)F
42 | 0.87 ± 0.06 | CCCO [propan-1-ol] + CCCCCCCCCCCCCC[P+](CCCCCC)(CCCCCC)CCCCCC.FC(F)(F)C(F)(F)[P-](F)(F)(F)(C(F)(F)C(F)(F)F)C(F)(F)C(F)(F)F
43 | 0.57 ± 0.06 | C=CCCCCC [1-heptene] + CCCCCCCCCCCCCC[P+](CCCCCC)(CCCCCC)CCCCCC.FC(F)(F)C(F)(F)[P-](F)(F)(F)(C(F)(F)C(F)(F)F)C(F)(F)C(F)(F)F
44 | 0.51 ± 0.06 | C#CCCCCCC [1-octyne] + CCCCCCCCCCCCCC[P+](CCCCCC)(CCCCCC)CCCCCC.FC(F)(F)C(F)(F)[P-](F)(F)(F)(C(F)(F)C(F)(F)F)C(F)(F)C(F)(F)F
45 | 0.49 ± 0.06 | C1CCCCCC1 [cycloheptane] + CCCCCCCCCCCCCC[P+](CCCCCC)(CCCCCC)CCCCCC.FC(F)(F)C(F)(F)[P-](F)(F)(F)(C(F)(F)C(F)(F)F)C(F)(F)C(F)(F)F
46 | 0.93 ± 0.07 | CCO [ethanol] + CCCCCCCCCCCCCC[P+](CCCCCC)(CCCCCC)CCCCCC.FC(F)(F)C(F)(F)[P-](F)(F)(F)(C(F)(F)C(F)(F)F)C(F)(F)C(F)(F)F
47 | 0.62 ± 0.06 | CCCCCC [hexane] + CCCCCCCCCCCCCC[P+](CCCCCC)(CCCCCC)CCCCCC.FC(F)(F)C(F)(F)[P-](F)(F)(F)(C(F)(F)C(F)(F)F)C(F)(F)C(F)(F)F
48 | 0.41 ± 0.05 | C1CCCC1 [cyclopentane] + CCCCCCCCCCCCCC[P+](CCCCCC)(CCCCCC)CCCCCC.FC(F)(F)C(F)(F)[P-](F)(F)(F)(C(F)(F)C(F)(F)F)C(F)(F)C(F)(F)F
49 | 0.52 ± 0.06 | C=CCCCC [hex-1-ene] + CCCCCCCCCCCCCC[P+](CCCCCC)(CCCCCC)CCCCCC.FC(F)(F)C(F)(F)[P-](F)(F)(F)(C(F)(F)C(F)(F)F)C(F)(F)C(F)(F)F
50 | 0.7 ± 0.06 | CCCCCCC [heptane] + CCCCCCCCCCCCCC[P+](CCCCCC)(CCCCCC)CCCCCC.FC(F)(F)C(F)(F)[P-](F)(F)(F)(C(F)(F)C(F)(F)F)C(F)(F)C(F)(F)F
51 | 0.41 ± 0.05 | C#CCCCC [1-hexyne] + CCCCCCCCCCCCCC[P+](CCCCCC)(CCCCCC)CCCCCC.FC(F)(F)C(F)(F)[P-](F)(F)(F)(C(F)(F)C(F)(F)F)C(F)(F)C(F)(F)F
